Earlier results in patent publication EP1232240B1, “DETERGENT COMPOSITIONS” (UNILEVER N.V., priority 1999, dated 2001).

Details: grams of solid to form a saturated solution in 100 grams of water at 20°C

- Water Solubility (g/100g): >100 g/100g
SMILES: NC(N)=O [Urea]
